Results reported in patent US10449177B2, “Methods of treating mild cognitive impairment (MCI) and related disorders” (Buck Institute for Research on Aging, priority 2010, dated 2019).

What was measured:
[1] = Brain uptake testing (PK): plasma and brain levels by LC/MS/MS; design: species or system mice; settings: mouse, in vivo, sc
Method: Brain uptake testing (PK): In general, CNS exposure studies consisted of collection of heparinized plasma and brains after treatment with tropisetron, nimetazepam, disulfuram and honokiol following subcutaneous (sc) administration of the molecules at 10 mg/kg. Plasma and brain levels of the compounds were determined by quantitative LC/MS/MS methodology, conducted at Integrated Analytical Solutions (on the internet at ianalytical.net). Plasma samples were precipitated with acetonitrile:methanol (1:1) cocktail containing an internal standard. The brain samples were homogenized directly in ethylacetate or extracted from 5M guanidine homogenates using the liquid-liquid method. The resulting supernatant were evaporated to dryness and subjected to the LC/MS/MS analysis. For each compound 3 mice were used for analysis. The brain-to-plasma ratios and brain levels were then be calculated to identify the best candidate(s) for further testing.

[2] = tested on: APP; assay: sAPPα, Aβ40 and Aβ42 levels in brain (PD) of APP transgenic (PDAPP) mice; format: in vivo; settings: Tg mice; for Aβ40 levels / Aβ42 levels / sAPPα levels in hippocampus (Hip) and entorhinal cortex (ECx): 10 mpk sc, 5 days
Method: […] Analysis: […]® kits from Perkin Elmer (PE) were used to quantify sAPPα (cat#: AL254C), sAPPβ (cat#: AL232C), Aβ40 (cat #: AL275C), Aβ42 (cat#: AL276C) and Tau (cat#: AL271C) from brain homogenates. The samples are added to an AlphaPlate-384 (cat#: 6005350). Twenty microliters (μl) of acceptor bead antibody mix was added to each five μl cerebrospinal fluid (CSF) sample and allowed to incubate for one hour at room temperature. Next, 25 μl of donor beads were added and allowed to incubate in the dark for 30 minutes at room temperature. Fluorescence was then measured on an EnsPire 96-well plate reader (Perkin-Elmer).
ELISA assays: ELISA kits from Invitrogen were also used to quantify Aβ1-40 (KHB3481) and Aβ1-42 (KHB3544) in duplicate from the CSF samples stored at −80° C. For assay, samples were thawed on ice and BSL-2 precautions practiced at all times. For the human Aβ 1-42 ultrasensitive ELISA, samples were diluted 1:2 (50 μl CSF plus 50 μl kit-provided standard diluent buffer). For the human Aβ1-40 ELISA, samples were diluted 1:15 (6.7 μl CSF plus […] of standard diluent buffer). Assays were performed according to manufacturer's instructions. In short, standards and samples were added to a plate pre-coated with a monoclonal capture antibody specific for the amino terminus of Hu Aβ. The samples were co-incubated with a rabbit detection antibody (Ab) specific for the carboxy terminus of the Aβ species being assayed for 3 hr at room temperature (Aβ 1-40) to overnight at 4° (Aβ 1-42) with gentle rocking After washing, bound rabbit Ab was detected using a horseradish peroxidase-labeled anti-rabbit secondary Ab. After washing again, bound HRP-anti rabbit Ab was detected colorimetrically (Spectramax 190, Molecular Devices) by the addition of a substrate solution. 1 mM 4-(2-Aminoethyl)benzenesulfonyl fluoride hydrochloride (AEBSF) protease inhibitor (101500, Calbiochem) was added to standards and samples.
In case of tropisetron the testing was done at 0.3 mpk, while in case of the other compounds (e.g., nimetazepam, disulfuram and honokiol) it was done at 10 mpk. From the collected brains the hippocampi were dissected. Levels of sAPPα, and Aβ1-40, Aβ1-42 and APPneo were measured by […] assay ([…] Perkin-Elmer), and Aβ1-40, Aβ1-42 (Invitrogen, sensitive ELISA kit) in brain homogenates of Tg mice. All procedures involved have been described (Galavan 2006, Proc Natl Acad Sci USA, 103, 7130-7135). […] The brain-to-plasma ratio (PK) of tropisetron and sAPPalpha/Aβ42 ratios (PD) were then determined.

[3] = tested on: 7 W cells stably transfected with APP; assay: […] sAPPα assay in 7 W APP transfected cells; format: cell-based; settings: 7 W CHO cells, 1 μM compound, 24 h
Method: In vitro compound testing assay: 7 W CHO cells were seeded at 50,000 cells/well in a 96 wells plate for 24 h. Then their medium was changed for fresh medium supplemented with 1 μM compounds (e.g., tropisetron, disulfuram, honokiol, and/or nimetazepam). After 24 h, 20 μl of the medium was added to 2 μl of the complete protease inhibitor with 1 μM EDTA and kept at 4° C. until analysis. 2 μl of that medium was treated with the Perkin Elmer (PE) […]® Aβ kit to determine the amount of Aβ42 secreted by the cells in 24 h using the PE-Enspire reader. Another aliquot of 2 μl of the medium was diluted with 50 μl of the PE […]® buffer and was treated with the PE […]® sAPPα kit to determine the amount of sAPPα secreted by the cells in 24 h. For the assay, 2 μl of the final mixture was treated with the acceptor bead and the donor antibody followed by addition of the donor beads and the […]® signal was measured using a PE-Enspire reader. For measurement of APPneo, the 50,000 cells were treated after seeding with fresh medium supplemented with or without the compound, but without fetal bovine serum (FBS), in order to induce the formation of the APPneo fragment. […]

[4] = target: T1, MBP-eAPP230-624 (Homo sapiens, UniProt P05067); assay: Small-angle X-ray scattering of MBP-eAPP230-624 incubated with compound; format: binding; settings: for Dmax (Å) ± 10 / MWcalc/MWseq ± 0.2 / Rg (Å) ± 2 / binding to MBP-eAPP230-624 / APP and effect on conformation or dimerization: 50 μM compound; for Dmax (Å) ± 10 / MWcalc/MWseq ± 0.2 / Rg (Å) ± 2: MBP-eAPP230-624, 4° C., 1 hour; for binding to MBP-eAPP230-624 / APP and effect on conformation or dimerization: small-angle X-ray scattering
T1 construct: 100 μg of purified MBP-eAPP230-624 were incubated with 50 μM Disulfuram
Method: X-ray scattering data collection: To 100 μg of purified MBP-eAPP230-624 were incubated with 50 μM Disulfuram or 50 μM Sulfiram in 20 mM sodium phosphate pH 7.4, 137 mM sodium chloride, 0.05% dimethyl sulfoxide at 4° C. for 1 hour. The control sample was incubated in the buffer alone. The samples were then concentrated to approximately 1.5 mg/ml using […] NML concentrators. Small-angle X-ray scattering data were collected using protein concentrations in the range of 0.25-1.5 mg/ml and an X-ray wavelength of 1.11 Å at beam line 12.3.1 (Advanced Light Source). Samples of the filtrate were used for buffer subtraction. Data were integrated with software customized for the beam line and processed with the program PRIMUS (Konarev (2003) Journal of Applied Crystallography 36, 1277-1282). The program GNOM (Svergun, (1992) J. Appl. Crystallogr. 25, 495-503) was used to calculate the maximum dimension and the radius of gyration and to estimate the intensity of the scattering at zero angle for higher concentration samples. The molecule weight of each protein was calculated by comparing to the scattering of proteins of known molecule weight.

[5] = Degradation in brain tissue; format: in vitro ADME
[6] = stated as known for the benzodiazepine; cited from earlier work

T1 sequence (P05067 230-624 isoform P05067-4): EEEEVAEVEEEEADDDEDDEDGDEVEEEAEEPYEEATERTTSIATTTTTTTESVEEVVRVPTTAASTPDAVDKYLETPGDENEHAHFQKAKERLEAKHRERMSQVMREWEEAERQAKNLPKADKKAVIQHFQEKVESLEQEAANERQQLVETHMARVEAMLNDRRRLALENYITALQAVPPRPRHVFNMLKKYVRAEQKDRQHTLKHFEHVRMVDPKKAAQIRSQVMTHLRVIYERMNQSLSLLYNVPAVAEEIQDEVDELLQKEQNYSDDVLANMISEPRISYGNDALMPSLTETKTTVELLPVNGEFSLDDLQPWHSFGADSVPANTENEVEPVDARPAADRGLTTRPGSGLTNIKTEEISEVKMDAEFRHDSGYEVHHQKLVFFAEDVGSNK

SMILES | blood-brain-barrier / brain penetration [1] | Aβ40 levels [2] | Aβ42 levels [2] | sAPPα levels in hippocampus (Hip) and entorhinal cortex (ECx) [2] | sAPPα levels secreted by cells [3] | Dmax (Å) ± 10 [4] [Å] | MWcalc/MWseq ± 0.2 [4] | Rg (Å) ± 2 [4] [Å] | binding affinity relative to sulfuram ([4]; inferred from greater effect in X-ray scattering) | binding to MBP-eAPP230-624 / APP and effect on conformation or dimerization ([4]; listed as Disulfuram) | binding to MBP-eAPP230-624 / APP and effect on conformation or dimerization ([4]; listed as disulfuram) | stability in brain tissue [5] | Aβ levels ([2]; 10 mpk) | binding to MBP-eAPP230-624 / APP and effect on conformation or dimerization [4] | blood-brain-barrier penetration (known) [6] | sAPPα levels in hippocampus (Hip) and entorhinal cortex (ECx) ([2]; 10 mg/kg) | sAPPα levels in hippocampus (Hip) and entorhinal cortex (ECx) ([2]; listed as nimetazepam, 10 mg/kg)
C=CCc1ccc(O)c(-c2ccc(O)c(CC=C)c2)c1 [honokiol, 2-(4-hydroxy-3-prop-2-enyl-phenyl)-4-prop-2-enyl-phenol] | penetrates the brain well | No significant changes | No significant changes | no significant increase |  |  |  |  |  |  |  |  |  |  |  |  | 
CCN(CC)C(=S)SSC(=S)N(CC)CC [Disulfiram, 1,1′,1″,1′″-[disulfanediylbis(carbonothioylnitrilo)]tetraethane] | low blood-brain-barrier penetration |  |  | no changes | increase | 160 | 1.5 | 51 | higher binding affinity | can bind to APP and disrupt APP dimerization | bind to MBP-eAPP230-624 and alter the conformation of the protein | degrades rapidly in brain tissue | no changes |  |  |  | 
CCN(CC)C(=S)SC(=S)N(CC)CC [Sulfiram] |  |  |  |  |  | 170 | 1.7 | 53 |  |  |  |  |  | bind to MBP-eAPP230-624 and alter the conformation of the protein |  |  | 
CN1C(=O)CN=C(c2ccccc2)c2cc([N+](=O)[O-])ccc21 [Nimetazepam, 2-methyl-9-nitro-6-phenyl-2,5-diazabicyclo[5.4.0] undeca-5,8,10,12-tetraen-3-one] |  | No significant changes | No significant changes |  |  |  |  |  |  |  |  |  |  |  | cross the blood-brain-barrier well | significant increase | increase
